The molecules below were run against baculovirus-expressed ALK (Homo sapiens, UniProt Q9UM73) (assay: ALK Kinase Assay (ELISA/TRF, PLC-γ substrate)). Conditions: read-out: ALK Kinase Inhibition (IC50).
Assay type: biochemical
Experimental: Example compounds were tested for their ability to inhibit the kinase activity of baculovirus-expressed ALK using a modification of the ELISA protocol reported for trkA in Angeles, T. S. et al., Anal. Biochem. 1996, 236, 49-55, which is incorporated herein by reference in its entirety. Phosphorylation of the substrate, phospholipase C-gamma (PLC-γ) generated as a fusion protein with glutathione S-transferase (GST) as reported in Rotin, D. et al., EMBO J. 1992, 11, 559-567, which is incorporated herein by reference in its entirety, was detected with a europium-labeled anti-phosphotyrosine antibody and measured by time-resolved fluorescence (TRF). Briefly, each 96-well plate was coated with 100 μL/well of 10 μg/mL substrate (phospholipase C-γ) in Tris-buffered saline (TBS). […] The reaction was initiated by adding enzyme (30 ng/ml ALK) and was allowed to proceed at 37° C. for 15 minutes. Detection of the phosphorylated product was performed by adding 100 μl/well of Eu-N1 labeled PT66 antibody (Perkin Elmer # AD0041). Incubation at 37° C. then proceeded for one (1) hour, followed by addition of 100 μL enhancement solution (Wallac #1244-105). The plate was gently agitated and after thirty minutes, the fluorescence of the resulting solution was measured using the EnVision 2100 (or 2102) multilabel plate reader (Perkin Elmer).
Data analysis was performed using ActivityBase (IDBS, Guilford, UK). IC50 values were calculated by plotting percent inhibition versus log10 of the concentration of compound and fitting to the nonlinear regression sigmoidal dose-response (variable slope) equation in XLFit (IDBS, Guilford, UK).
Further: 1 µM ATP (Km level).

Chain of baculovirus-expressed ALK (Q9UM73 19-1620): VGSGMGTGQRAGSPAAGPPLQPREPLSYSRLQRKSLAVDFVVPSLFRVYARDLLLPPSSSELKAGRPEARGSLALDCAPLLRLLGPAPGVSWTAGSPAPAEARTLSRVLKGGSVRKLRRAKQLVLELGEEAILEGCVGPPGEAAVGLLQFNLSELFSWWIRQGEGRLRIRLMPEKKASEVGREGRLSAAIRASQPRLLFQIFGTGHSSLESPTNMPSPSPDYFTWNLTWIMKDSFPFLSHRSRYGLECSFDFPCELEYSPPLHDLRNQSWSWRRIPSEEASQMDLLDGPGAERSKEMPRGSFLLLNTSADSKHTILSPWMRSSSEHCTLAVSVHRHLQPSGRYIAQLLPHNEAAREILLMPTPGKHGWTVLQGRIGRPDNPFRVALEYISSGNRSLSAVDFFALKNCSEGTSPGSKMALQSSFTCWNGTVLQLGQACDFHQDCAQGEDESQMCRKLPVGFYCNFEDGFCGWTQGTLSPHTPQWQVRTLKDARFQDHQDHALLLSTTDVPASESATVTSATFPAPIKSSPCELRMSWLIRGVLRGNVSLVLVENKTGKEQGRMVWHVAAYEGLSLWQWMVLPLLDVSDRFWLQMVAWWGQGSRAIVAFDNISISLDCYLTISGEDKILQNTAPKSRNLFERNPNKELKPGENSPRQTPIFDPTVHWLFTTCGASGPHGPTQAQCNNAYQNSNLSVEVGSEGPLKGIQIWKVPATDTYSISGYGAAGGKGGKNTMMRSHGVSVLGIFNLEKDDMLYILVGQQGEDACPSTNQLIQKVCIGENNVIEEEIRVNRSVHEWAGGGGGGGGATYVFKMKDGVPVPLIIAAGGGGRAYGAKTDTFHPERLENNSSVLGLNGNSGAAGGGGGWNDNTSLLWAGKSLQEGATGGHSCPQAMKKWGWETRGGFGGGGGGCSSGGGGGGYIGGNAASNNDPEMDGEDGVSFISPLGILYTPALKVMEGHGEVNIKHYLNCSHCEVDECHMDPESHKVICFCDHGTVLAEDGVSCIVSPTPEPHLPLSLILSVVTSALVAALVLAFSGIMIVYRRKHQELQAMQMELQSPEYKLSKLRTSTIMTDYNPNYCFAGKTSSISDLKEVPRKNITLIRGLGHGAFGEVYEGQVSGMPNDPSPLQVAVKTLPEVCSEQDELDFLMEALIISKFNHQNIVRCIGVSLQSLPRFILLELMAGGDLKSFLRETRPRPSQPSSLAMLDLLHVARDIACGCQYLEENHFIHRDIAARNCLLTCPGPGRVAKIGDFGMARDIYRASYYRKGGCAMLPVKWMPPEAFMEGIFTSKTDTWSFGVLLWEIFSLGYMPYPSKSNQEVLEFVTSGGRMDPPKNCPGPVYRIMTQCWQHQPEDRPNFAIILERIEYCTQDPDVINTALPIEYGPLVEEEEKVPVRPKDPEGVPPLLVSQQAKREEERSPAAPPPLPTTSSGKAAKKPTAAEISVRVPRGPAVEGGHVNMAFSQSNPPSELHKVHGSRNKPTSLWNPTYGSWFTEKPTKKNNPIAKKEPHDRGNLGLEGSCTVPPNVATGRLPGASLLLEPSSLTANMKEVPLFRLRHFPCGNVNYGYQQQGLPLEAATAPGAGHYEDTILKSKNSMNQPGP

Structure (SMILES) | IC50 [µM]
O=C(c1cccc(-c2cnc3c(c2)N(Cc2cc(Cl)ccc2C(F)(F)F)CCN3)c1)N1CCN(c2cccc(Cl)c2)CC1 [Example 357, [4-(3-Chlorophenyl)piperazin-1-yl]-(3-{1-[5-chloro-2-(trifluoromethyl)benzyl]-1,2,3,4-tetrahydropyrido[2,3-b]pyrazin-7-yl}phenyl)methanone] | 0.1 to 1
O=C(c1cccc(-c2cnc3c(c2)N(Cc2cc(Cl)ccc2C(F)(F)F)CCN3)c1)N1CCN(CC2CCCCC2)CC1 [Example 362, (3-{1-[5-Chloro-2-(trifluoromethyl)benzyl]-1,2,3,4-tetrahydropyrido[2,3-b]pyrazin-7-yl}phenyl)-[4-(cyclohexylmethyl)piperazin-1-yl]methanone] | 0.1 to 1
NS(=O)(=O)c1ccc(CNC(=O)c2cccc(-c3cnc4c(c3)N(Cc3cc(Cl)ccc3C(F)(F)F)CCN4)c2)cc1 [Example 363, 3-{1-[5-Chloro-2-(trifluoromethyl)benzyl]-1,2,3,4-tetrahydropyrido[2,3-b]pyrazin-7-yl}-N-(4-sulfamoylbenzyl)benzamide] | 0.1 to 1
O=C(c1cccc(-c2cnc3c(c2)N(Cc2cc(Cl)ccc2C(F)(F)F)CCN3)c1)N1CCC(N2CCOCC2)CC1 [Example 364, (3-{1-[5-Chloro-2-(trifluoromethyl)benzyl]-1,2,3,4-tetrahydropyrido[2,3-b]pyrazin-7-yl}phenyl)-(4-morpholin-4-ylpiperidin-1-yl)methanone] | 0.1 to 1
O=C(c1cccc(-c2cnc3c(c2)N(Cc2cc(Cl)ccc2C(F)(F)F)CCN3)c1)N1CCC[C@H]1CN1CCCC1 [Example 365, (3-{1-[5-Chloro-2-(trifluoromethyl)benzyl]-1,2,3,4-tetrahydropyrido[2,3-b]pyrazin-7-yl}phenyl)-((S)-2-pyrrolidin-1-ylmethylpyrrolidin-1-yl)methanone] | < 0.1
COc1ccccc1CN(C)C(=O)c1cccc(-c2cnc3c(c2)N(Cc2cc(Cl)ccc2C(F)(F)F)CCN3)c1 [Example 367, 3-{1-[5-Chloro-2-(trifluoromethyl)benzyl]-1,2,3,4-tetrahydropyrido[2,3-b]pyrazin-7-yl}-N-(2-methoxybenzyl)-N-methylbenzamide] | 0.1 to 1
O=C(c1ccc(-c2cnc3c(c2)N(Cc2cc(Cl)ccc2C(F)(F)F)CCN3)cc1)N1CCN(c2ccccc2)CC1 [Example 368, (4-{1-[5-Chloro-2-(trifluoromethyl)benzyl]-1,2,3,4-tetrahydropyrido[2,3-b]pyrazin-7-yl}phenyl)-(4-phenylpiperazin-1-yl)methanone] | 0.1 to 1
O=C(c1ccc(-c2cnc3c(c2)N(Cc2cc(Cl)ccc2C(F)(F)F)CCN3)cc1)N1CCN(c2ncccn2)CC1 [Example 369, (4-{1-[5-Chloro-2-(trifluoromethyl)benzyl]-1,2,3,4-tetrahydropyrido[2,3-b]pyrazin-7-yl}phenyl)-(4-pyrimidin-2-ylpiperazin-1-yl)methanone] | 0.1 to 1
O=C(c1ccc(-c2cnc3c(c2)N(Cc2cc(Cl)ccc2C(F)(F)F)CCN3)cc1)N1CCN(c2ccc(Cl)cc2)CC1 [Example 370, [4-(4-Chlorophenyl)piperazin-1-yl]-(4-{1-[5-chloro-2-(trifluoromethyl)benzyl]-1,2,3,4-tetrahydropyrido[2,3-b]pyrazin-7-yl}phenyl)methanone] | 0.1 to 1
O=C(c1ccc(-c2cnc3c(c2)N(Cc2cc(Cl)ccc2C(F)(F)F)CCN3)cc1)N1CCC(O)(c2ccc(Cl)cc2)CC1 [Example 371, [4-(4-Chlorophenyl)-4-hydroxypiperidin-1-yl]-(4-{1-[5-chloro-2-(trifluoromethyl)benzyl]-1,2,3,4-tetrahydropyrido[2,3-b]pyrazin-7-yl}phenyl)methanone] | 0.1 to 1
O=C(c1ccc(-c2cnc3c(c2)N(Cc2cc(Cl)ccc2C(F)(F)F)CCN3)cc1)N1CCC(n2c(=O)[nH]c3ccccc32)CC1 [Example 372, 1-[1-(4-{1-[5-Chloro-2-(trifluoromethyl)benzyl]-1,2,3,4-tetrahydropyrido[2,3-b]pyrazin-7-yl}benzoyl)piperidin-4-yl]-1,3-dihydrobenzoimidazol-2-one] | 0.1 to 1
COc1ccccc1N1CCN(C(=O)c2ccc(-c3cnc4c(c3)N(Cc3cc(Cl)ccc3C(F)(F)F)CCN4)cc2)CC1 [Example 373, (4-{1-[5-Chloro-2-(trifluoromethyl)benzyl]-1,2,3,4-tetrahydropyrido[2,3-b]pyrazin-7-yl}phenyl)-[4-(2-methoxyphenyl)piperazin-1-yl]methanone] | 0.1 to 1
O=C(c1ccc(-c2cnc3c(c2)N(Cc2cc(Cl)ccc2C(F)(F)F)CCN3)cc1)N1CCN(c2cccc(C(F)(F)F)c2)CC1 [Example 374, (4-{1-[5-Chloro-2-(trifluoromethyl)benzyl]-1,2,3,4-tetrahydropyrido[2,3-b]pyrazin-7-yl}phenyl)-{4-[3-(trifluoromethyl)phenyl]piperazin-1-yl}methanone] | 0.1 to 1
O=C(c1ccc(-c2cnc3c(c2)N(Cc2cc(Cl)ccc2C(F)(F)F)CCN3)cc1)N1CCC(c2ccccc2)CC1 [Example 375, (4-{1-[5-Chloro-2-(trifluoromethyl)benzyl]-1,2,3,4-tetrahydropyrido[2,3-b]pyrazin-7-yl}phenyl)-(4-phenylpiperidin-1-yl)methanone] | 0.1 to 1

Next, values leading:

IC50 [µM] | Structure (SMILES)
0.1 to 1 | O=C(NCc1ccccc1)c1cccc(-c2cnc3c(c2)N(Cc2cc(Cl)ccc2C(F)(F)F)CCN3)c1 [Example 356, N-Benzyl-3-{1-[5-Chloro-2-(trifluoromethyl)benzyl]-1,2,3,4-tetrahydropyrido[2,3-b]pyrazin-7-yl}benzamide]
0.1 to 1 | O=C(NC1Cc2ccccc2C1)c1cccc(-c2cnc3c(c2)N(Cc2cc(Cl)ccc2C(F)(F)F)CCN3)c1 [Example 358, 3-{1-[5-Chloro-2-(trifluoromethyl)benzyl]-1,2,3,4-tetrahydropyrido[2,3-b]pyrazin-7-yl}-N-indan-2-ylbenzamide]
0.1 to 1 | O=C(c1cccc(-c2cnc3c(c2)N(Cc2cc(Cl)ccc2C(F)(F)F)CCN3)c1)N1CCN(CCc2ccccc2)CC1 [Example 359, (3-{1-[5-Chloro-2-(trifluoromethyl)benzyl]-1,2,3,4-tetrahydropyrido[2,3-b]pyrazin-7-yl}phenyl)-(4-phenethylpiperazin-1-yl)methanone]
0.1 to 1 | O=C(c1cccc(-c2cnc3c(c2)N(Cc2cc(Cl)ccc2C(F)(F)F)CCN3)c1)N1CCN(c2ccccc2Cl)CC1 [Example 360, [4-(2-Chlorophenyl)piperazin-1-yl]-(3-{1-[5-chloro-2-(trifluoromethyl)benzyl]-1,2,3,4-tetrahydropyrido[2,3-b]pyrazin-7-yl}phenyl)methanone]
< 0.1 | O=C(NC1CCN(Cc2ccccc2)C1)c1cccc(-c2cnc3c(c2)N(Cc2cc(Cl)ccc2C(F)(F)F)CCN3)c1 (centres unmarked) [Example 361, N-(1-Benzylpyrrolidin-3-yl)-3-{1-[5-chloro-2-(trifluoromethyl)benzyl]-1,2,3,4-tetrahydropyrido[2,3-b]pyrazin-7-yl}benzamide]
0.1 to 1 | O=C(c1cccc(-c2cnc3c(c2)N(Cc2cc(Cl)ccc2C(F)(F)F)CCN3)c1)N1CCCC1c1cccnc1 (centres unmarked) [Example 366, (3-{1-[5-Chloro-2-(trifluoromethyl)benzyl]-1,2,3,4-tetrahydropyrido[2,3-b]pyrazin-7-yl}phenyl)-(2-pyridin-3-ylpyrrolidin-1-yl)methanone]

Reference: patent US7601716B2, “Pyridopyrazines and derivatives thereof as ALK and c-Met inhibitors” (Cephalon, Inc., priority 2006, dated 2009)
